Reference: PubChem BioAssay AID248 (DTP/NCI, 2004)
Where “and” joins values, the source holds several entries; their conditions need not be identical. Equal entries are not always repeated. Inconclusive results and toxic doses are left out. Rule as the data show it: active = T/C of 150% or more; inactive = T/C below 125%.

Test system: L1210 leukemia ip in BDF1 mice, survival T/C
Assay: NCI In Vivo Anticancer Drug Screen. Data for tumor model L1210 Leukemia (intraperitoneal) in B6D2F1 (BDF1) mice
Settings: endpoint: mean survival time, higher = longer survival
Method in brief: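 Each compound was tested against a transplantable tumor grown in mice. The endpoint was survival, with treated animals benchmarked against vehicle controls as a simple ratio.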

[1] = dose: 100.0 mg/kg/injection, schedule: Q04DX003 (ip), vehicle: saline
[2] = dose: 200.0 mg/kg/injection, schedule: Q04DX003 (ip), vehicle: saline
[3] = dose: 400.0 mg/kg/injection, schedule: Q04DX003 (ip), vehicle: saline
[4] = dose: 100.0 mg/kg/injection, schedule: Q01DX001 (ip), vehicle: saline
[5] = dose: 200.0 mg/kg/injection, schedule: Q01DX001 (ip), vehicle: saline
[6] = dose: 400.0 mg/kg/injection, schedule: Q01DX001 (ip), vehicle: saline
[7] = dose: 100.0 mg/kg/injection, schedule: Q04DX003 (ip), vehicle: Klucel (hydroxypropylcellulose) (HPC)
[8] = dose: 200.0 mg/kg/injection, schedule: Q04DX003 (ip), vehicle: Klucel (hydroxypropylcellulose) (HPC)
[9] = dose: 400.0 mg/kg/injection, schedule: Q04DX003 (ip), vehicle: Klucel (hydroxypropylcellulose) (HPC)
[10] = dose: 100.0 mg/kg/injection, schedule: Q04DX003 (ip), vehicle: saline with Tween-80
[11] = dose: 200.0 mg/kg/injection, schedule: Q04DX003 (ip), vehicle: saline with Tween-80
[12] = dose: 400.0 mg/kg/injection, schedule: Q04DX003 (ip), vehicle: saline with Tween-80
[13] = dose: 100.0 mg/kg/injection, schedule: Q01DX009 (ip), vehicle: Klucel (hydroxypropylcellulose) (HPC)
[14] = dose: 200.0 mg/kg/injection, schedule: Q01DX009 (ip), vehicle: Klucel (hydroxypropylcellulose) (HPC)
[15] = dose: 50.0 mg/kg/injection, schedule: Q04DX003 (ip), vehicle: saline

Measured: T/C

Cc1nc2ccccc2c(C)c1-c1c(C)nc2ccccc2c1C
inactive: dose: 100.0 mg/kg/injection, schedule: Q01DX001 (ip), vehicle: Klucel (hydroxypropylcellulose) (HPC) 98 % of control | dose: 100.0 mg/kg/injection, schedule: Q01DX009 (ip), vehicle: saline 97 % of control | [1] 100 % of control | dose: 200.0 mg/kg/injection, schedule: Q01DX001 (ip), vehicle: Klucel (hydroxypropylcellulose) (HPC) 108 % of control | dose: 200.0 mg/kg/injection, schedule: Q01DX009 (ip), vehicle: saline 95 % of control | [2] 97 % of control | dose: 400.0 mg/kg/injection, schedule: Q01DX001 (ip), vehicle: Klucel (hydroxypropylcellulose) (HPC) 103 % of control | dose: 400.0 mg/kg/injection, schedule: Q01DX009 (ip), vehicle: saline 94 % of control | [3] 94 % of control

CC(=O)OC1CCC2C3CCC4=C(Cl)C(=O)CCC4C3CCC12C (stereo unspecified)
inactive: dose: 100.0 mg/kg/injection, schedule: Q01DX009 (sc), vehicle: steriod suspending solution 103 % of control | dose: 200.0 mg/kg/injection, schedule: Q01DX009 (sc), vehicle: steriod suspending solution 102 % of control | dose: 400.0 mg/kg/injection, schedule: Q01DX009 (sc), vehicle: steriod suspending solution 100 % of control

COc1ccc(Nc2ccnc3cc(Cl)ccc23)cc1CN(CCCl)C(C)CCl (stereo unspecified)
inactive: dose: 25.0 mg/kg/injection, schedule: Q01DX001 (ip), vehicle: carboxymethylcellulose (CMC) 113 % of control | dose: 50.0 mg/kg/injection, schedule: Q01DX001 (ip), vehicle: carboxymethylcellulose (CMC) 107 % of control | dose: 100.0 mg/kg/injection, schedule: Q01DX001 (ip), vehicle: carboxymethylcellulose (CMC) 103 % of control

CC(=O)Nc1ccc(/C=C(\C#N)c2ccc([N+](=O)[O-])cc2)cc1
inactive: dose: 100.0 mg/kg/injection, schedule: Q04DX002 (ip), vehicle: gum acacia 95 % of control | dose: 200.0 mg/kg/injection, schedule: Q04DX002 (ip), vehicle: gum acacia 103 % of control | dose: 400.0 mg/kg/injection, schedule: Q04DX002 (ip), vehicle: gum acacia 95 % of control

O=C(CCCc1ccc([N+](=O)[O-])cc1)Nc1ccc(S(=O)(=O)F)cc1
inactive: [4] 101 % of control | [5] 100 % of control | [6] 97 % of control

CCCCCCCCCCCCCCCCCCCCCCCCC
inactive: [7] 91 % of control | [8] 89 % of control | [9] 87 % of control

O=C1c2ccccc2C(=O)N1Cc1ccccc1
inactive: [10] 92 % of control | [11] 100 % of control | [12] 96 % of control

COc1cc(C(=O)CO)cc(OC)c1OC(C)=O
inactive: dose: 5.0 mg/kg/injection, schedule: Q01DX001 (ip), vehicle: saline 97 % of control | dose: 10.0 mg/kg/injection, schedule: Q01DX001 (ip), vehicle: saline 103 % of control | dose: 20.0 mg/kg/injection, schedule: Q01DX001 (ip), vehicle: saline 89 % of control | dose: 40.0 mg/kg/injection, schedule: Q01DX001 (ip), vehicle: saline 97 % of control | dose: 80.0 mg/kg/injection, schedule: Q01DX001 (ip), vehicle: saline 92 % of control

Cc1ccc2c(Br)cc(Br)c(O)c2n1
inactive: dose: 25.0 mg/kg/injection, schedule: Q01DX009 (ip), vehicle: Klucel (hydroxypropylcellulose) (HPC) 94 % of control | dose: 50.0 mg/kg/injection, schedule: Q01DX009 (ip), vehicle: Klucel (hydroxypropylcellulose) (HPC) 96 % of control | [13] 97 % of control and 89 % of control | [7] 97 % of control | [8] 112 % of control | [9] 98 % of control

Nc1nc(Cl)cc2c1ncn2C1OC(CO)C(O)C1O (stereo unspecified)
inactive: dose: 100.0 mg/kg/injection, schedule: Q01DX005 (ip), vehicle: saline 105 % of control | dose: 200.0 mg/kg/injection, schedule: Q01DX005 (ip), vehicle: saline 107 % of control

CCCCCCCCCCCCOC(=O)C[n+]1cccc(C(=O)NCc2ccccc2)c1
inactive: dose: 6.25 mg/kg/injection, schedule: Q01DX009 (ip), vehicle: saline with Tween-80 98 % of control | dose: 12.5 mg/kg/injection, schedule: Q01DX009 (ip), vehicle: saline with Tween-80 94 % of control | dose: 25.0 mg/kg/injection, schedule: Q01DX009 (ip), vehicle: saline with Tween-80 102 % of control

O=C(/C=C/c1ccccc1)NC12CC3CC(CC(C3)C1)C2
inactive: [1] 91 % of control | [2] 93 % of control | [3] 100 % of control

OCc1cc2ccccc2c2ccccc12
inactive: dose: 222.0 mg/kg/injection, schedule: Q01DX Z (ip), vehicle: carboxymethylcellulose (CMC) 96 % of control | dose: 330.0 mg/kg/injection, schedule: Q01DX Z (ip), vehicle: carboxymethylcellulose (CMC) 90 % of control | dose: 500.0 mg/kg/injection, schedule: Q01DX Z (ip), vehicle: carboxymethylcellulose (CMC) 93 % of control | dose: 750.0 mg/kg/injection, schedule: Q01DX Z (ip), vehicle: carboxymethylcellulose (CMC) 88 % of control

O=C(/C=C(\c1ccccc1)C1C2C=CC(C2)C1c1ccccc1)c1ccccc1 (stereo unspecified)
inactive: dose: 100.0 mg/kg/injection, schedule: Q01DX001 (ip), vehicle: saline with Tween-80 97 % of control | dose: 200.0 mg/kg/injection, schedule: Q01DX001 (ip), vehicle: saline with Tween-80 95 % of control | dose: 400.0 mg/kg/injection, schedule: Q01DX001 (ip), vehicle: saline with Tween-80 96 % of control

CC(=O)Nc1ccc(/C=N/NC(=O)COCC(=O)N/N=C/c2ccc(NC(C)=O)cc2)cc1
inactive: [13] 91 % of control | [14] 94 % of control | dose: 400.0 mg/kg/injection, schedule: Q01DX009 (ip), vehicle: Klucel (hydroxypropylcellulose) (HPC) 96 % of control

N#CCCP(CCC#N)CCP(CCC#N)CCC#N
inactive: [10] 96 % of control | [11] 89 % of control | [12] 86 % of control

N#Cc1ccc(O)cc1
inactive: dose: 100.0 mg/kg/injection, schedule: Q01DX005 (ip), vehicle: Klucel (hydroxypropylcellulose) (HPC) 105 % of control | [13] 99 % of control | dose: 100.0 mg/kg/injection, schedule: Q04DX002 (ip), vehicle: Klucel (hydroxypropylcellulose) (HPC) 106 % of control | dose: 200.0 mg/kg/injection, schedule: Q01DX005 (ip), vehicle: Klucel (hydroxypropylcellulose) (HPC) 105 % of control | [14] 96 % of control | dose: 200.0 mg/kg/injection, schedule: Q04DX002 (ip), vehicle: Klucel (hydroxypropylcellulose) (HPC) 117 % of control | dose: 400.0 mg/kg/injection, schedule: Q01DX005 (ip), vehicle: Klucel (hydroxypropylcellulose) (HPC) 108 % of control | dose: 400.0 mg/kg/injection, schedule: Q04DX002 (ip), vehicle: Klucel (hydroxypropylcellulose) (HPC) 87 % of control

O=C1C=CC(=C(Br)Br)O1
inactive: dose: 12.5 mg/kg/injection, schedule: Q04DX003 (ip), vehicle: saline with Tween-80 92 % of control | dose: 12.5 mg/kg/injection, schedule: Q04DX003 (ip), vehicle: saline 97 % of control | dose: 25.0 mg/kg/injection, schedule: Q04DX003 (ip), vehicle: saline with Tween-80 103 % of control | dose: 25.0 mg/kg/injection, schedule: Q04DX003 (ip), vehicle: saline 95 % of control | [15] 92 % of control | [1] 98 % of control

CC(O)(C(=O)O)c1ccccc1O (stereo unspecified)
inactive: dose: 75.0 mg/kg/injection, schedule: Q01DX001 (ip), vehicle: saline 98 % of control | dose: 150.0 mg/kg/injection, schedule: Q01DX001 (ip), vehicle: saline 96 % of control | dose: 300.0 mg/kg/injection, schedule: Q01DX001 (ip), vehicle: saline 93 % of control

CC(C)C1(C(=O)O)SCCCS1
inactive: [15] 100 % of control | [1] 110 % of control | [2] 102 % of control | [3] 98 % of control

Cc1[nH]c2ccccc2c1C1=CC(=O)c2ccccc2C1=O
inactive: [4] 93 % of control | [5] 112 % of control | [6] 98 % of control

Cn1c(=O)c2c(ncn2CCSCC2=NS(=O)(=O)c3cc(S(N)(=O)=O)c(C(F)(F)F)cc3N2)n(C)c1=O
inactive: dose: 100.0 mg/kg/injection, schedule: Q04DX002 (ip), vehicle: saline 97 % of control | dose: 200.0 mg/kg/injection, schedule: Q04DX002 (ip), vehicle: saline 94 % of control | dose: 400.0 mg/kg/injection, schedule: Q04DX002 (ip), vehicle: saline 94 % of control
